The structures appear in SMILES notation. Where a name gives a salt, the structure may show the parent alone.

Experiment [1] deals with T1, (H^+, K^+)ATPase (Sus scrofa, UniProt P19156).
T1 construct: ATPase is prepared from the pig gastric mucosa; from tissue; host or cells: pig gastric mucosa
As to the kind of experiment: Inhibition of (H^+, K^+)ATPase activities. In kind it is biochemical. The following applies: pig gastric mucosa ATPase; pH 7.4; 2 mM MgCl2; 10 mM KCl; 37° C; read-out: (H^+,K^+)ATPase IC50 (Concentration of 50% inhibition). The method, then:
Inhibition of (H^+, K^+)ATPase activities. Inhibition of (H^+, K^+)ATPase activities is determined by the method of F. Fellenius et al., [Nature 290, 159-61, (1981)]. (H^+, K^30 )ATPase is prepared from the pig gastric mucosa and the test compound is incubated with 2 mM of […], 40 mM of tris-buffer (pH 7.4), 2 mM of MgCl2 and 10 mM of KCl at 37° C. Inorganic phosphate occurring by stimulation of ATPase is determined.

The subject of experiment [2] is histamine-stimulated acid secretion. As to the kind of experiment: Inhibitory activities of gastric-acid secretion in the acute fistula rat. Format: in vivo. Conditions: 50 mg/kg oral, histamine.2HCl 10 mg/kg s.c. 4 hours after compound, Male Wistar rats, read-out: Total acid inhibition (inhibitory percent of compounds on histamine-stimulated acid secretion). The method, then:
Inhibitory activities of gastric-acid secretion in the acute fistula rat.
Determination of gastric-acid secretion is performed by the method of Y. Goto et al.(Expenentia 32, 946, (1976)). Male Wistar rats are anesthetized with urethane (1.2 g/kg, i.p.) 2 hours after the oral administration of compounds. A dual polyethylene cannula is introduced into the gastric lumen after ligation of the pylorus and the esophagus. The stomach is rinsed with 5 ml of saline through the gastric cannula at 15 min interval. The acid output during 15 minutes period is titrated with 0.01N NaOH. Histamine.2HCl (10 mg/kg, s.c.) is administered as a secretory agent 4 hours after the administration of compounds.

T1 sequence (P19156 2-1034 limits assumed): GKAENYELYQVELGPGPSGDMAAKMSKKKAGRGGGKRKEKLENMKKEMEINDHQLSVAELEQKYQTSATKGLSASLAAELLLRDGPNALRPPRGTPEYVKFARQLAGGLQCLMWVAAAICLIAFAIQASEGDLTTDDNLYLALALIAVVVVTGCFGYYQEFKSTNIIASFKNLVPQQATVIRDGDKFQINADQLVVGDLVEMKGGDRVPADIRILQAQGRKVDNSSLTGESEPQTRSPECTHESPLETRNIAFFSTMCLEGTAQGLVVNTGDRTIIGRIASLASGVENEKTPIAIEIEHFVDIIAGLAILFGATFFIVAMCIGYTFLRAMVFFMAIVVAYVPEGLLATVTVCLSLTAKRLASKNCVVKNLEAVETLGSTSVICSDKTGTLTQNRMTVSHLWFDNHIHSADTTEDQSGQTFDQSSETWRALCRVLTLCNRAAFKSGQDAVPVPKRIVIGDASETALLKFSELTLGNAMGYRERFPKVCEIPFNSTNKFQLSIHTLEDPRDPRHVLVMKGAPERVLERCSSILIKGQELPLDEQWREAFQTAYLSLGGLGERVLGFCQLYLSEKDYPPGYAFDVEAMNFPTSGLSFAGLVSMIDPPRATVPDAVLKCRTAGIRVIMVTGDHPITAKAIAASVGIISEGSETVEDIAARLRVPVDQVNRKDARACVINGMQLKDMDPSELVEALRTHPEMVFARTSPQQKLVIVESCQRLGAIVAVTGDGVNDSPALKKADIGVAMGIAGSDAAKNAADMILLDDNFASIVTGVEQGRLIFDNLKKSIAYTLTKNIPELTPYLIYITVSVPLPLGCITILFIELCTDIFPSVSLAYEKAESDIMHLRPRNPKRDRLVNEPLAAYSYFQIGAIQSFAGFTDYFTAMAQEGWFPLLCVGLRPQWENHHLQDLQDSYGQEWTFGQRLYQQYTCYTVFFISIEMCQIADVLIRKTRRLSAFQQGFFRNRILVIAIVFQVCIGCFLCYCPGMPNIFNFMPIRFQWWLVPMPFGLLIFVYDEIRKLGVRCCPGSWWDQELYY
T1 sequence (P18434 whole entry partner): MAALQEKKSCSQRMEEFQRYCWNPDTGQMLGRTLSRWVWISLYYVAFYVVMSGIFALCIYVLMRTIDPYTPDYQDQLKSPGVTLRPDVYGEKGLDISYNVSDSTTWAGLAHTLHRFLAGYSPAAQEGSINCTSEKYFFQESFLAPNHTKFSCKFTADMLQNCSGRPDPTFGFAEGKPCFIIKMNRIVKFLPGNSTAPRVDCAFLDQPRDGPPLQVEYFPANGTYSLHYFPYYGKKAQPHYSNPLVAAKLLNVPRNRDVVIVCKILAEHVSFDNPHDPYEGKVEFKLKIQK

On to `CC(=O)Sc1c(-c2ccc(Cl)cc2)nc2nc3cccccc3n12` [Compound 57, 3-(acetyl)thio-2-(4-chlorophenyl)-cyclohept[d]imidazo[1,2-a]imidazole], for which the IC50 in experiment [1] stood at 0.79 µM. In the case of `C=CC(=O)Sc1c(-c2ccccc2)nc2nc3cccccc3n12` [Compound 37, 3-(Acryloyl)thio-2-phenyl-cyclohept[d]imidazo[1,2-a]imidazole], the IC50 in experiment [1] turned out to be 2.2 µM. Also, in experiment [2], the inhibition in vivo at 50 mg/kg came to 51.5%.

For the molecule `CCC(=O)Sc1c(-c2ccccc2)nc2nc3cccccc3n12` [Compound 35, 3-(Propionyl)thio-2-phenyl-cyclohept[d]imidazo[1,2-a]imidazole], the IC50 in experiment [1] is 10.5 µM. Also, in experiment [2], the inhibition in vivo at 50 mg/kg worked out at 54%. Consider `CCC(=O)Sc1c(-c2ccccc2)nc2n(C)c3ccccc3n12` [Compound 87, 3-(Propionyl)thio-2-phenyl-9-methyl-9H-imidazo[1,2-a]benzimidazole], for which the IC50 in experiment [1] was determined as 25.8 µM. Moreover, the inhibition in vivo at 50 mg/kg in experiment [2] is 53.8%.

Turning to `Cc1nc2nc3cccccc3n2c1SC(=O)C(C)(C)C` [Compound 68, 3-(Pivaloyl)thio-2-methyl-cyclohept[d]imidazo[1,2-a]imidazole], the inhibition in vivo at 50 mg/kg in experiment [2] was found to be 73.9%. `CCC(=O)Sc1c2ccccn2c2nc3c(n12)CCCCC3` [Compound 21, 13-(Propionyl)thio-pyrido[1',2':3,4]imidazo[1,2-a]-7,8,9,10,11pentahydro-cycloheptimidazole fumarate]: the IC50 in experiment [1] was determined as 18.1 µM. In addition, the inhibition in vivo at 50 mg/kg in experiment [2] worked out at 64.9%.

Turning to `Cc1nc2nc3cccccc3n2c1SC(=O)c1ccccc1` [Compound 77, 3-(Benzoyl)thio-2-methyl-cyclohept[d]imidazo[1,2-a]imidazole], the inhibition in vivo at 50 mg/kg in experiment [2] was determined as 82.5%. Consider `O=C(Sc1c(-c2ccccc2)nc2nc3cccccc3n12)c1ccccn1` [Compound 48, 3-(Picolinoyl)thio-2-phenyl-cyclohept[d]imidazo[1,2-a]imidazole], for which the IC50 in experiment [1] worked out at 2.72 µM. Consider `Cc1nc2nc3cccccc3n2c1SC(=O)c1ccccn1` [Compound 76, 3-(Picolinoyl)thio-2-methyl-cyclohept[d]imidazo[1,2-a]imidazole], for which the inhibition in vivo at 50 mg/kg in experiment [2] amounted to 83.7%. On to `c1ccn2c(c1)c(SCCN1CCCCC1)n1c3c(nc12)CCCCC3` [Compound 23, 13-[2-(1-Piperidino)ethyl]thio-pyrido[1',2':3,4]imidazo[1,2-a]7,8,9,10,11-pentahydro-cycloheptimidazole], for which, in experiment [1], the IC50 worked out at 91.3 µM. For `CC(=O)Sc1c(-c2ccc(F)cc2)nc2nc3cccccc3n12` [Compound 55, 3-(acetyl)thio-(4-fluorophenyl)-cyclohept[d]imidazo[1,2-a]imidazole], the IC50 in experiment [1] turned out to be 1.4 µM. For the molecule `Cc1nc2nc3cccccc3n2c1SC(=O)C(C)C` [Compound 81, 3-(isobutyryl)thio-2-methyl-cyclohept[d]imidazo[1,2-a]imidazole], in experiment [1], the IC50 was found to be 2.79 µM. The inhibition in vivo at 50 mg/kg in experiment [2] is 79.8%.

With `CCCCC(=O)Sc1c(-c2ccccc2)nc2nc3ccc(C(C)C)ccc3n12` [Compound 53, 3-(valeryl)thio-2-phenyl-7-isopropyl-cyclohept[d]imidazo[1,2-a]imidazole], in experiment [1], the IC50 was determined as 1.95 µM. For the same molecule, in experiment [2], the inhibition in vivo at 50 mg/kg came to 73.7%. Turning to `COCC(=O)Sc1c(C)nc2nc3cccccc3n12` [Compound 72, 3-(Methoxyacetyl)thio-2-methyl-cyclohept[d]imidazo[1,2-a]imidazole], the IC50 in experiment [1] worked out at 5.9 µM. On to `COCC(=O)Sc1c(-c2ccccc2)nc2nc3cccccc3n12` [Compound 43, 3-(Methoxyacetyl)thio-2-phenyl-cyclohept[d]imidazo[1,2-a]imidazole], for which the IC50 in experiment [1] turned out to be 2.23 µM. Further, the inhibition in vivo at 50 mg/kg in experiment [2] stood at 53.8%.

For the molecule `COCCC(=O)Sc1c(-c2ccccc2)nc2nc3cccccc3n12` [Compound 44, 3-(3-Methoxypropionyl)thio-2-phenyl-cyclohept[d]imidazo[1,2-a]imidazole], in experiment [1], the IC50 was determined as 8.75 µM. Moreover, in experiment [2], the inhibition in vivo at 50 mg/kg is 80.7%. For `C=CCSc1c2ccccn2c2nc3c(n12)CCCCC3` [Compound 16, 13-(2-Propenyl)thio-pyrido[1',2':3,4]imidazo[1,2-a]-7,8,9,10,11pentahydro-cycloheptimidazole], in experiment [1], the IC50 was 16.5 µM. In the case of `CCCCC(=O)Sc1c(C)nc2nc3cccccc3n12` [Compound 82, 3-(valeryl)thio-2-methyl-cyclohept [d]imidazo[1,2-a]imidazole], the inhibition in vivo at 50 mg/kg in experiment [2] worked out at 81.2%.

For the molecule `C/C=C/C(=O)Sc1c(C)nc2nc3cccccc3n12` [Compound 69, 3-(Crotonoyl)thio-2-methyl-cyclohept[d]imidazo[1,2-a]imidazole], the IC50 in experiment [1] stood at 22.7 µM. Besides, the inhibition in vivo at 50 mg/kg in experiment [2] was determined as 83.5%. Regarding `CC#CCSc1c2ccccn2c2nc3c(n12)CCCCC3` [Compound 19, 13-(2-Butynyl)thio-pyrido[1',2':3,4]imidazo[1,2-a]-7,8,9,10,11pentahydro-cycloheptimidazole], in experiment [1], the IC50 came out at 47.3 µM. On to `CCC(=O)Sc1c(C)nc2nc3cccccc3n12` [Compound 66, 3-(Propionyl)thio-2-methyl-cyclohept[d]imidazo[1,2-a]imidazole], for which the IC50 in experiment [1] worked out at 17.5 µM. In experiment [2], the inhibition in vivo at 50 mg/kg came to 63.7%. Consider `C/C=C/C(=O)Sc1c(-c2ccccc2)nc2nc3cccccc3n12` [Compound 38, 3-(Crotonoyl)thio-2-phenyl-cyclohept[d]imidazo[1,2-a]imidazole], for which the IC50 in experiment [1] is 13.3 µM. Further, the inhibition in vivo at 50 mg/kg in experiment [2] came to 63.4%. Regarding `Cn1ccn2c(SC(=O)COc3ccccc3)c(-c3ccccc3)nc12` [Compound 92, 5-(Phenoxyacetyl)thio-6-phenyl-1-methyl-1H-imidazo[1,2-a]imidazole], the IC50 in experiment [1] was found to be 16 µM. Also, the inhibition in vivo at 50 mg/kg in experiment [2] was found to be 65.6%. As to `CC(=O)Sc1c(-c2ccccc2)nc2nc3cccccc3n12` [Compound 34, 3-(Acetyl)thio-2-phenyl-cyclohept[d]imidazo[1,2-a]imidazole], the IC50 in experiment [1] turned out to be 2.47 µM. Also, in experiment [2], the inhibition in vivo at 50 mg/kg was 76.6%. `C#CCSc1c2ccccn2c2nc3c(n12)CCCCC3` [Compound 18]: the IC50 in experiment [1] was 3.06 µM. Turning to `COCCC(=O)Sc1c(C)nc2nc3cccccc3n12` [Compound 75, 3-(3-MethoxyPropionyl)thio-2-methyl-cyclohept[d]imidazo[1,2-a]imidazole], the IC50 in experiment [1] stood at 55.1 µM. For the molecule `CC(=O)Sc1c(C)nc2nc3cccccc3n12` [Compound 65, 3-(Acetyl)thio-2-methyl-cyclohept[d]imidazo[1,2-a]imidazole], the inhibition in vivo at 50 mg/kg in experiment [2] turned out to be 68.8%.

For the origin of these results see patent US5008282A, “Cyclic guanidine derivatives, anti-ulceratives and methods of manufacturing the same” (Kotobuki Seiyaku Co. Ltd., priority 1988, dated 1991).
